Laboratory results reported in patent publication US20240360145A1, “PYRIMIDINE-2,4-DIAMINE DERIVATIVES AS WELL AS PREPARATION METHOD THEREFOR AND USE THEREOF” (LISEN THERAPEUTICS, INC., priority 2022, published 2024).

Legend:
[1] = system: NCI-H82 cells; assay: Cell viability IC50 (CCK-8), small cell lung cancer cell line H82; type: cell-based; settings: Homo sapiens, NCI-H82; H82, CCK-8
Experimental: (§1) Small cell lung cancer cell lines DMS114, NCI-H1688, NCI-H82, NCI-H146, and NCI-H446 cells were cultured in RPMI-1640 medium containing 10% fetal bovine serum and 1% penicillin-streptomycin. All the cells were cultured in a constant temperature incubator containing 5% CO2 at 37° C.
(§2) Small cell lung cancer is a highly heterogeneous malignant tumor, and its clinical treatment is mainly based on traditional chemotherapy (mainly platinum medicaments and etoposide). In order to study the anti-tumor activity of the compounds of the present disclosure in small cell lung cancer, the CCK-8 method was used to investigate the cell viability IC50 of compound 8 for five small cell lung cancer cell lines.

[2] = system: LT015 primary cells; assay: Cell viability IC50 (CCK-8), primary cells LT015 from small cell lung cancer bronchoscopic biopsy; type: cell-based; settings: LT015, CCK-8
Experimental: (1) The tissue blocks obtained from the tumor patients were transferred from the preservation solution to the pre-cooled HBSS buffer containing antibiotics, and the tissue blocks were washed for three times with the pre-cooled HBSS buffer.
(2) Tissue was sheared on ice with sterile surgical instruments until no obvious tissue blocks are visible to the naked eye, the tissue fluid was collected into a 15 ml centrifuge tube, and this process takes about 5 to 10 minutes.
(3) Digestive enzymes (collagenase I, collagenase IV and neutral protease being mixed in a ratio of 1:1:1, a concentration of stock solution was 10 mg/ml, diluted with PBS buffer or HBSS buffer, and the use concentration was 1 mg/ml) were added to the centrifuge tube, and after mixing well by pipetting, the centrifuge tube was placed in a 37° C. constant temperature incubator for 1 to 2 hours.
(4) High-glucose medium was added to the centrifuge tube to stop digestion. After mixing well, the cell precipitate was collected by centrifugation, and resuspended with MBM medium (Advanced DMEM-F12+20 ng/ml bFGF+50 ng/ml EGF+1% ITS-X+2% B27+10 μMY-27632+1% PS). The cell suspension was placed in a Matrigel-coated 24-well plate and cultured for 5 to 7 days. When the cell density in the well plate reaches 80-90%, the cells were sub-cultured into a 6 cm cell culture dish, and when they grew to a density of 80% to 90%, the cells were cryopreserved for preservation.
(1) Primary cells from lung cancer pleural effusion within 5 generations were cultured to the logarithmic growth phase. When the confluence reached about 90%, the cells were digested with 0.25% trypsin, and complete culture medium was added to collect the cells. After centrifugation at room temperature, the supernatant was discarded, and the cell precipitate was resuspended with fresh complete culture medium. After counting, the cells were placed at room temperature for later use. The cells were inoculated into a 384-well plate at a density of 2000 cells/well with a volume of 40 μl/well. The wells at the outermost circle of the plate were not inoculated with cells, and instead, added with sterile water to reduce evaporation of the culture medium.
(2) After overnight culture of the cells, the medium was discarded, and a fresh medium containing different concentrations of compounds was added at 200 μl/well. The dilution method of the compound was as follows: first the compound with the highest concentration of 10 μM was prepared, and then the compound was diluted for 3 times in sequence. […] At the same time, a blank control group was set up, in which only an equal volume of culture medium was added without adding cells. Five replicate wells were set up for each group. The cells were placed in the incubator for further culture.
(3) After 72 hours, 8 μl of CCK-8 solution, which was double-diluted with 10 mM PBS, was added to each well, and the cells were shaken and placed in an incubator at 37° C. for further culture for 2 hours.
(4) The light absorbance value at 450 nm was read using a microplate reader, and the IC50 was calculated according to the absorbance value. The calculation method was the same as above.
(1) Sample information: PE039, PE052, and PE062 were all primary cell samples from pleural effusion of patients with small cell lung cancer, and LT015 was a primary cell sample from bronchoscopic biopsy of a patient with small cell lung cancer.
(2) CCK-8 detection was used to detect the IC50 values of different medicaments (compounds).

[3] = system: MDA-MB-231 (breast cancer); assay: Cell viability IC50 (CellTiter-Glo), MDA-MB-231; type: cell-based; settings: Homo sapiens, MDA-MB-231, 72 hours
Experimental: (§3) The cancer cell lines were cultured to the logarithmic growth phase according to conventional culture methods, and the cells were inoculated into a 384-well plate at a density of 2,000 cells/well in a volume of 40 μl/well. The concentrations of added compounds were: […], 1.67 μM, 0.56 μM, 0.19 μM, 0.062 μM, 0.021 μM, 0.0069 μM, 0.0023 μM, 0.00076 μM, and 0 μM. After 72 hours, cell viability was detected using the CellTiter-Glo™ Detection Kit.

[4] = system: NCI-H446 cells; assay: Cell viability IC50 (CCK-8), small cell lung cancer cell line H446; type: cell-based; settings: Homo sapiens, NCI-H446; H446, CCK-8
Experimental: as §1, §2

[5] = system: HCT116 (colon cancer); assay: Cell viability IC50 (CellTiter-Glo), HCT116; type: cell-based; settings: Homo sapiens, HCT-116, HCT116, 72 hours
Experimental: as §3

[6] = system: NCI-H1650 cells; assay: Cell viability IC50 (MTT), Gefitinib- and Osimertinib-resistant NCI-H1650 cells; settings: Homo sapiens, NCI-H1650, 72 h, read-out: cell viability IC50
Experimental: 1% sodium pyruvate was additionally added when culturing NCI-H1975 cells. All the cells were cultured in a constant temperature incubator containing 5% CO2 at 37° C.
(1) The cells were cultured to the logarithmic growth phase. […] After centrifugation at room temperature, the supernatant was discarded, and the cell precipitate was resuspended with fresh complete medium. After counting, the cells were placed at room temperature for later use.
(2) The cells were inoculated into a 96-well plate at a density of 4,000 cells/well with a volume of 100 μl/well. The wells at the outermost circle of the plate were not inoculated with cells, and instead, added with sterile water to reduce evaporation of the culture medium.
(3) After overnight culture of the cells, the medium was discarded, and a fresh medium containing different concentrations of compounds was added at 200 μl/well. The dilution method of the compound was as follows: first the compound with the highest concentration of 10 μM was prepared, and then the compound was diluted for 3 times in sequence. […] At the same time, a blank control group was set up, in which only an equal volume of culture medium was added without adding cells. Six replicate wells were set up for each group. The cells were placed in the incubator for further culture.
(4) After 72 hours, 20 μl of MTT solution (5 mg/ml) sterilized by filtration through a 0.22 m filter membrane was added to each well, and the cells were cultured in an incubator at 37° C. for another 4 hours.
(6) IC50 of the compounds for different cells was calculated based on the light absorption value of each group. Specifically, the absorbance value under treatment with different concentrations of compounds was first subtracted from the absorbance value of the blank well, and then the absorbance value of the 0 μM group was taken as 100% to calculate the cell survival rate after treatment with different concentrations of compounds. That is, survival rate=((ODexperimental well−ODblank control)/(ODnegative control−ODblank control))×100%. IC50 values were calculated based on the survival rate and concentration of the compound.

[7] = system: DMS114 cells; assay: Cell viability IC50 (CCK-8), small cell lung cancer cell line DMS114; type: cell-based; settings: Homo sapiens, DMS-114; DMS114, CCK-8
Experimental: as §1, §2

[8] = system: PE043 primary cells; assay: Cell viability IC50 (CCK-8), primary cells PE043 from lung adenocarcinoma pleural effusion resistant to EGFR-TKI; settings: read-out: cell viability IC50
Experimental: (1) The pleural effusion was poured into a 15 mL or 50 mL of sterilized centrifuge tube for centrifugation. Centrifugation conditions: 800 to 1000 rpm, 5 min.
(2) The precipitate was resuspended and washed for 2 to 3 times with PBS.
(3) The cell precipitate was resuspended with complete culture medium (α-MEM medium containing 10% fetal bovine serum and 2% penicillin-streptomycin), and the flocculent matter in the pleural effusion was removed using a sterilized cell sieve.
(4) The red blood cells in the pleural effusion were removed with lymphocyte separation fluid, and the tumor cells and lymphocyte components were collected. The number of tumor cells was observed under a microscope, and the cells were inoculated.
(5) After 24 hours, the supernatant was discarded, and fresh culture medium was added for further culture.
(6) The cell growth status was observed, and it was determined based on the cell status whether the medium was required to be continuously changed to remove blood cells. When the cells grew to a density of 80% to 90%, the cells were preserved.
(1) Primary cells from lung cancer pleural effusion within 5 generations were cultured to the logarithmic growth phase. […] After centrifugation at room temperature, the supernatant was discarded, and the cell precipitate was resuspended with fresh complete culture medium. After counting, the cells were placed at room temperature for later use. The cells were inoculated into a 384-well plate at a density of 2000 cells/well with a volume of 40 μl/well. The wells at the outermost circle of the plate were not inoculated with cells, and instead, added with sterile water to reduce evaporation of the culture medium.

[9] = system: PC-3 (prostate cancer); assay: Cell viability IC50 (CellTiter-Glo), PC-3; type: cell-based; settings: PC-3, 72 hours
Experimental: as §3

[10] = system: Hep3B (liver cancer); assay: Cell viability IC50 (CellTiter-Glo), Hep3B; type: cell-based; settings: Homo sapiens, 72 hours
Experimental: as §3

`CN1CC2CCC(C1)N2Cc1ccc(Nc2ncc(Cl)c(Nc3ccccc3S(=O)(=O)N(C)C)n2)cc1` [Compound 8, 2-((5-chloro-2-((4-((3-methyl-3,8-diazabicyclo[3.2.1]octan-8-yl)methyl)phenyl)amino)pyrimidin-4-yl)amino)-N,N-dimethylbenzenesulfonamide] was tested. Which IC50 [1] did it give?
Its IC50 is 5.15 nM.

And the IC50 [2]?
Its IC50 is 6.11 nM.

What about the IC50 [3] of the same compound?
The IC50 was 49.9 nM.

What about the IC50 [4] of the same compound?
The IC50 was 7.58 nM.

And the IC50 [5]?
Its IC50 is 9 nM.

And the IC50 [6]?
Its IC50 is 83.6 nM.

And the IC50 [7]?
The IC50 was 6.03 nM.

And the IC50 [8]?
Its IC50 is 34.6 nM.

And the IC50 [9]?
Its IC50 is over 3000 nM.

And the IC50 [10]?
The IC50 was 185 nM.
